Results: patent US12622915B2, “Methods of treating PDE IV-mediated diseases or conditions” (Vanda Pharmaceuticals Inc., priority 2020, dated 2026)

What was measured:
[1] = target: T1, Phosphodiesterase PDE10A2 (Homo sapiens, UniProt Q9Y233); assay: Phosphodiesterase PDE10A2 enzyme assay; type: biochemical; conditions: N=2, Example 3
T1 construct: host or cells: insect Sf9 cells
Excerpt: (§1) Reference standards are run as an integral part of each assay to ensure the validity of the results obtained. Reference Compounds: • Phosphodiesterase PDE10A2 Papaverine • Phosphodiesterase PDE11A4 Dipyridamole • Phosphodiesterase PDE1A MMPX • Phosphodiesterase PDE2A EHNA • Phosphodiesterase PDE3A Cilostamide • Phosphodiesterase PDE4A1A Rolipram • Phosphodiesterase PDE4B1 Rolipram • Phosphodiesterase PDE5A Zaprinast • Phosphodiesterase PDE6 Zaprinast • Phosphodiesterase PDE7A IBMX • Phosphodiesterase PDE7B IBMX • Phosphodiesterase PDE8A1 Dipyridamole • Phosphodiesterase PDE9A2 Zaprinast
Phosphodiesterase PDE4A1A; Phosphodiesterase PDE4B1; Phosphodiesterase PDE10A2; Phosphodiesterase PDE11A4; Phosphodiesterase PDE2A; Phosphodiesterase PDE3A; Phosphodiesterase PDE7A; Phosphodiesterase PDE7B; and Phosphodiesterase PDE8A1: • Source: Human recombinant insect Sf9 cells • Substrate: 0.10 μM FAM-cAMP • Vehicle: 1.00% DMSO • Significance Crit.: ≥50% of max stimulation or inhibition • Incubation Buffer: 10 mM Tris-HCl, pH 7.2, 10 mM MgCl2, 0.05% NaN3, 0.1% phosphate-free BSA • Quantitation Method: Quantitation of Fluorescein-AMP-IMAP • Pre-Incub. Time/Temp: 15 minutes @25° C. • Incubation Time/Temp: 30 minutes @25° C.
IC50 values are determined by a non-linear, least squares regression analysis using MathIQ™ (ID Business Solutions Ltd., UK). […]

Phosphodiesterase PDE6 = target: T2, Phosphodiesterase PDE6 (Bos taurus, UniProt P11541+P23439); assay: Phosphodiesterase PDE6 enzyme assay; type: biochemical, bovine; conditions: N=2, Example 3
T2 construct: Source: Bovine retinal rod outer segments; from tissue; host or cells: bovine retinal rod outer segments
T2 sequence (P11541 2-856 limits assumed): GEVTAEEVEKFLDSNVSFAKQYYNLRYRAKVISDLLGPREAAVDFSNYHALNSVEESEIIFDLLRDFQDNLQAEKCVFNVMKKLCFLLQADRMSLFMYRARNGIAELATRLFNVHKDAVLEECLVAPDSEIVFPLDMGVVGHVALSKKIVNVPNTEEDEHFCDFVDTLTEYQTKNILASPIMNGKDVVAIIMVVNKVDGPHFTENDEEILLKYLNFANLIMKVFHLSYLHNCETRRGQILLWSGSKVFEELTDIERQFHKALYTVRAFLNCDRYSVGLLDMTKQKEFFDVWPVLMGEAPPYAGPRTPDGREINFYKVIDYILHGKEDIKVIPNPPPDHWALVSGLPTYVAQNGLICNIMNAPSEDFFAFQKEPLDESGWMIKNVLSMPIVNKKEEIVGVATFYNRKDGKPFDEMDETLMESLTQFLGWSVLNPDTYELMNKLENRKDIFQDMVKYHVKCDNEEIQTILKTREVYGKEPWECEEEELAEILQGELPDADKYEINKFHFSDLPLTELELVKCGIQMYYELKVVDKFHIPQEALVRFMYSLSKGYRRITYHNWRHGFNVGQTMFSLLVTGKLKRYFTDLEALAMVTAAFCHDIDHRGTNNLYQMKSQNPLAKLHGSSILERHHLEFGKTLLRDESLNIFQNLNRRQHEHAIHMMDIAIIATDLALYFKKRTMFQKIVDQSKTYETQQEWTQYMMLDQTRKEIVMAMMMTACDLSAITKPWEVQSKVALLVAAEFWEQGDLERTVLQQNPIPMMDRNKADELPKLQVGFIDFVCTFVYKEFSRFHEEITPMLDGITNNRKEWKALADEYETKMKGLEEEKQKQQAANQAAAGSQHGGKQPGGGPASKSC
T2 sequence (P23439 2-850 limits assumed): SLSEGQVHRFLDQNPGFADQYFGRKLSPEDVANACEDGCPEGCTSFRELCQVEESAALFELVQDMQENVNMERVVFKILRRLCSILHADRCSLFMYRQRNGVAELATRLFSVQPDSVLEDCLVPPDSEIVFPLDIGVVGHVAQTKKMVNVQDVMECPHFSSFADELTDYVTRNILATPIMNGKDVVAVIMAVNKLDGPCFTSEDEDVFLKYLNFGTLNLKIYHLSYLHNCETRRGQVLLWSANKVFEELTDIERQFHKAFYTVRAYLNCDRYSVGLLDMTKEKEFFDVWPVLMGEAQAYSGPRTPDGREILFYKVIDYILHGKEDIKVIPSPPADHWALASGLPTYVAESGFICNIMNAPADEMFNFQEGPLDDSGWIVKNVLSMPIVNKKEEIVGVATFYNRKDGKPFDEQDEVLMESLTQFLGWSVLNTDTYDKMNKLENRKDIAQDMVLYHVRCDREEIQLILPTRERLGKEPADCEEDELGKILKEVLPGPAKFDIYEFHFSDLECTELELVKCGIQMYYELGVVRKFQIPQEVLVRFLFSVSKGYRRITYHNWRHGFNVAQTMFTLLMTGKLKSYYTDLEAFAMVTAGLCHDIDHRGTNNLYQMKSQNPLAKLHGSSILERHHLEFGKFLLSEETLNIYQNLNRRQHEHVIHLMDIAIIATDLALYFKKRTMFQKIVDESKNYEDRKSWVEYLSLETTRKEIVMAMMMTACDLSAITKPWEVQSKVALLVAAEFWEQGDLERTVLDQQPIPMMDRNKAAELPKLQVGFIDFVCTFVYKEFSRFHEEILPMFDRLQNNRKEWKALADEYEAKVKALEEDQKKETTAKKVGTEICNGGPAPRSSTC
Excerpt: as §1
Phosphodiesterase PDE6: • Source: Bovine retinal rod outer segments • Substrate: 100 μM [^3H]cGMP+cGMP • Vehicle: 1.00% DMSO • Significance Crit.: ≥50% of max stimulation or inhibition • Incubation Buffer: 50 mM Tris-HCl, pH 7.5, 5 mM MgCl2 • Quantitation Method: Quantitation of [^3H]Guanosine • Pre-Incub. […]
IC50 values are determined by a non-linear, least squares regression analysis using MathIQ™ (ID Business Solutions Ltd., UK). Where inhibition constants (Ki) are presented, the Ki values are calculated using the equation of Cheng and Prusoff (Cheng, Y., Prusoff, W. H., Biochem. Pharmacol. 22:3099-3108, 1973) using the observed IC50 of the tested compound, the concentration of radioligand employed in the assay, and the historical values for the KD of the ligand. […]

T1 sequence (Q9Y233 267-1055): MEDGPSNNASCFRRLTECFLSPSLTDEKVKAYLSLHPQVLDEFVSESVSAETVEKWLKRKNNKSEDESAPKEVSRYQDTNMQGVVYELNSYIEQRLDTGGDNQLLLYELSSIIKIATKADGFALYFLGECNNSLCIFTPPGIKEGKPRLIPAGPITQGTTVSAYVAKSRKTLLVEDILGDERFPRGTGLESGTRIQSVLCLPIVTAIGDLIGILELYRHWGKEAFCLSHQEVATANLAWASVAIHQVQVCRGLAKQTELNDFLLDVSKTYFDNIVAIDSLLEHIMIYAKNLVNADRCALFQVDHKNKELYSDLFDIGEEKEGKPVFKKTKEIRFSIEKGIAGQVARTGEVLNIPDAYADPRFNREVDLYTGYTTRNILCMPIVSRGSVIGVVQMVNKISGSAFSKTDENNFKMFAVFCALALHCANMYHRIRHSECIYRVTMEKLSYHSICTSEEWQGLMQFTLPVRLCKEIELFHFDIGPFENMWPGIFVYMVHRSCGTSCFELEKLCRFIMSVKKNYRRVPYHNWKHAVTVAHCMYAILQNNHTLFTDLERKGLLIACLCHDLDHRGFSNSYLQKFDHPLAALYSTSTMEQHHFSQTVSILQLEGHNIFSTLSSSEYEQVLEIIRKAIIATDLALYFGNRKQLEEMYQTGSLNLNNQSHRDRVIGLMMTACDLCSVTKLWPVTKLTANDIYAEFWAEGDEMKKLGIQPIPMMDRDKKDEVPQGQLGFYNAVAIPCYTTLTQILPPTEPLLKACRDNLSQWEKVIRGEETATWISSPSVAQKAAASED

**Q.** CNc1nc(Nc2ccccc2)nc(OCC(F)(F)C(F)F)n1 [compound of Formula (I), N^2-methyl-N^4-phenyl-6-(2,2,3,3-tetrafluoropropoxy)-1,3,5-triazine-2,4-diamine] was tested. Which inhibition at 10 µM [1] did it give?
**A.** 11%

**Q.** And the inhibition at 10 µM (Phosphodiesterase PDE6)?
**A.** 8%
